Patent US20230293526A1, “METHOD FOR TREATING CANCER WITH A REVERSE TRANSCRIPTASE INHIBITOR” (PrimeFour Therapeutics, Inc., priority 2020, published 2023)

Test system: cancer cell lines
Assay: Cancer cell proliferation activity of representative nucleosides, CellTiterGlo 72 h (Example 7, Tables 8 and 9)
Assay type: cell-based
Experimental: Dose response relationships on cell proliferation was assessed for representative nucleosides on cancer cell lines. Briefly, compound treatment of cells started one day after seeding with a final DMSO concentration of 0.1%, and was performed by nanodrop-dispensing using a Tecan Dispenser. 0.1% DMSO (solvent) and Staurosporine (10 μM) served as high control (100% viability) and low control (0% viability), respectively. Cells were cultured in the appropriate media. For the assays, cells were seeded in white cell culture-treated flat and clear bottom multiwell plates and incubated at 37° C. overnight before compound was added. After incubation for 72 h at 37° C. at 5% or 10% CO2 dependent on the medium, cell plates were equilibrated to room temperature for one hour, CellTiterGlo reagent (Promega) was added and luminescence was measured approximately an hour later using a luminometer.
Raw data were converted into percent cell viability relative to the high and low control, which were set to 100% and 0%, respectively.

- IC50 (72 h, 5637, 72 h (Table 9)): > 50 µM
- IC50 (72 h, CLS439, 72 h (Table 9)): > 50 µM
- IC50 (72 h, HS729, 72 h (Table 9)): > 50 µM
- IC50 (72 h, J82, 72 h (Table 9)): 4.88 µM
- IC50 (72 h, JAR, 72 h (Table 9)): > 50 µM
- IC50 (72 h, MT3, 72 h (Table 9)): 3.77 µM
- IC50 (72 h, PC3, 72 h (Table 9)): > 50 µM
- IC50 (72 h, RD, 72 h (Table 9)): > 50 µM
- IC50 (72 h, T24, 72 h (Table 9)): 3.01 µM
- IC50 (Homo sapiens, 22Rv1, 72 h, 22RV1, 72 h (Table 9)): 1.06 µM
- IC50 (Homo sapiens, 786-0, 72 h, 786O, 72 h (Table 9)): > 50 µM
- IC50 (Homo sapiens, A204, 72 h, A204, 72 h (Table 9)): 2.55 µM
- IC50 (Homo sapiens, A549, 72 h, A549, 72 h (Table 9)): > 50 µM
- IC50 (Homo sapiens, A673, 72 h, A673, 72 h (Table 9)): 5.25 µM
- IC50 (Homo sapiens, A2780, 72 h, A2780, 72 h (Table 9)): > 50 µM
- IC50 (Homo sapiens, A-375, 72 h, A375, 72 h (Table 9)): > 50 µM
- IC50 (Homo sapiens, A-431, 72 h, A431, 72 h (Table 9)): 2.6 µM
- IC50 (Homo sapiens, ACHN, 72 h, 72 h (Table 9)): 4.02 µM
- IC50 (Homo sapiens, ASPC1, 72 h, ASPC1, 72 h (Table 9)): > 50 µM
- IC50 (Homo sapiens, BT-20, 72 h, BT20, 72 h (Table 9)): > 50 µM
- IC50 (Homo sapiens, BXPC-3, 72 h, BXPC3, 72 h (Table 9)): 6.34 µM
- IC50 (Homo sapiens, C-33-A, 72 h, C33A, 72 h (Table 9)): 1.75 µM
- IC50 (Homo sapiens, CAKI-1, 72 h, CAKI1, 72 h (Table 9)): > 50 µM
- IC50 (Homo sapiens, COLO 205, 72 h, COLO205, 72 h (Table 9)): > 50 µM
- IC50 (Homo sapiens, COLO-678, 72 h, COLO678, 72 h (Table 9)): > 50 µM
- IC50 (Homo sapiens, Ca-Ski, 72 h, CASKI, 72 h (Table 9)): > 50 µM
- IC50 (Homo sapiens, Caco-2, 72 h, CACO2, 72 h (Table 9)): > 50 µM
- IC50 (Homo sapiens, Calu-6, 72 h, CALU6, 72 h (Table 9)): > 50 µM
- IC50 (Homo sapiens, DLD-1, 72 h, DLD1, 72 h (Table 9)): 4.59 µM
- IC50 (Homo sapiens, DU-145, 72 h, DU145, 72 h (Table 9)): 5.46 µM
- IC50 (Homo sapiens, EFO-21, 72 h, EFO21, 72 h (Table 9)): > 50 µM
- IC50 (Homo sapiens, EJ-28, 72 h, EJ28, 72 h (Table 9)): > 50 µM
- IC50 (Homo sapiens, Granta-519, 72 h, GRANTA-519, 72 h (Table 9)): 3.15 µM
- IC50 (Homo sapiens, HCT-15, 72 h, HCT15, 72 h (Table 9)): > 50 µM
- IC50 (Homo sapiens, HCT-116, 72 h, HCT116, 72 h (Table 9)): > 50 µM
- IC50 (Homo sapiens, HEK293, 72 h, HEK293, 72 h (Table 9)): > 50 µM
- IC50 (Homo sapiens, HL-60, 72 h, HL-60, 72 h (Table 9)): > 50 µM
- IC50 (Homo sapiens, HT-29, 72 h, HT29, 72 h (Table 9)): > 50 µM
- IC50 (Homo sapiens, HT-1080, 72 h, HT1080, 72 h (Table 9)): > 50 µM
- IC50 (Homo sapiens, HeLa, 72 h, 72 h (Table 9)): > 50 µM
- IC50 (Homo sapiens, HepG2, 72 h, HEPG2, 72 h (Table 9)): 5.08 µM
- IC50 (Homo sapiens, Hs-578T, 72 h, HS578T, 72 h (Table 9)): > 50 µM
- IC50 (Homo sapiens, IGROV-1, 72 h, IGROV1, 72 h (Table 9)): > 50 µM
- IC50 (Homo sapiens, IMR-90, 72 h, IMR90, 72 h (Table 9)): > 50 µM
- IC50 (Homo sapiens, JEG-3, 72 h, JEG3, 72 h (Table 9)): > 50 µM
- IC50 (Homo sapiens, JIMT-1, 72 h, JIMT1, 72 h (Table 9)): > 50 µM
- IC50 (Homo sapiens, K562, 72 h, K-562, 72 h (Table 9)): > 50 µM
- IC50 (Homo sapiens, Kasumi 1, 72 h, KASUMI-1, 72 h (Table 9)): > 50 µM
- IC50 (Homo sapiens, L-363, 72 h, L-363, 72 h (Table 9)): > 50 µM
- IC50 (Homo sapiens, LoVo, 72 h, 72 h (Table 9)): 3.55 µM
- IC50 (Homo sapiens, MCF7, 72 h, MCF7, 72 h (Table 9)): > 50 µM
- IC50 (Homo sapiens, MDA-MB-231, 72 h, MDAMB231, 72 h (Table 9)): > 50 µM
- IC50 (Homo sapiens, MDA-MB-435, 72 h, MDAMB435, 72 h (Table 9)): > 50 µM
- IC50 (Homo sapiens, MDA-MB-436, 72 h, MDAMB436, 72 h (Table 9)): 5.24 µM
- IC50 (Homo sapiens, MDA-MB-468, 72 h, MDAMB468, 72 h (Table 9)): > 50 µM
- IC50 (Homo sapiens, MG-63, 72 h, MG63, 72 h (Table 9)): > 50 µM
- IC50 (Homo sapiens, MHH-ES-1, 72 h, MHHES1, 72 h (Table 9)): 3.07 µM
- IC50 (Homo sapiens, MIA PaCa-2, 72 h, MIAPACA2, 72 h (Table 9)): > 50 µM
- IC50 (Homo sapiens, MINO, 72 h, 72 h (Table 9)): 3.91 µM
- IC50 (Homo sapiens, MV4-11, 72 h, MV4-11, 72 h (Table 9)): 0.38 µM
- IC50 (Homo sapiens, NCI-H23, 72 h, NCI-H23, 72 h (Table 9)): 4.05 µM
- IC50 (Homo sapiens, NCI-H82, 72 h, NCIH82, 72 h (Table 9)): 5.25 µM
- IC50 (Homo sapiens, NCI-H292, 72 h, NCIH292, 72 h (Table 9)): > 50 µM
- IC50 (Homo sapiens, NCI-H460, 72 h, NCIH460, 72 h (Table 9)): 2.8 µM
- IC50 (Homo sapiens, OVCAR-3, 72 h, OVCAR3, 72 h (Table 9)): > 50 µM
- IC50 (Homo sapiens, OVCAR-4, 72 h, OVCAR4, 72 h (Table 9)): > 50 µM
- IC50 (Homo sapiens, PANC-1, 72 h, PANC1, 72 h (Table 9)): > 50 µM
- IC50 (Homo sapiens, PLC-PRF-5, 72 h, PLCPRF5, 72 h (Table 9)): 5.05 µM
- IC50 (Homo sapiens, Panc1005, 72 h, PANC1005, 72 h (Table 9)): > 50 µM
- IC50 (Homo sapiens, Ramos, 72 h, 72 h (Table 9)): > 50 µM
- IC50 (Homo sapiens, SAOS-2, 72 h, SAOS2, 72 h (Table 9)): > 50 µM
- IC50 (Homo sapiens, SF-268, 72 h, SF268, 72 h (Table 9)): 14.6 µM
- IC50 (Homo sapiens, SF-295, 72 h, SF295, 72 h (Table 9)): > 50 µM
- IC50 (Homo sapiens, SK-BR-3, 72 h, SKBR3, 72 h (Table 9)): 3.44 µM
- IC50 (Homo sapiens, SK-HEP1, 72 h, SKHEP1, 72 h (Table 9)): 3.15 µM
- IC50 (Homo sapiens, SK-LMS-1, 72 h, SKLMS1, 72 h (Table 9)): 2.88 µM
- IC50 (Homo sapiens, SK-MEL-5, 72 h, SKMEL5, 72 h (Table 9)): > 50 µM
- IC50 (Homo sapiens, SK-MEL-28, 72 h, SKMEL28, 72 h (Table 9)): > 50 µM
- IC50 (Homo sapiens, SK-N-AS, 72 h, SKNAS, 72 h (Table 9)): > 50 µM
- IC50 (Homo sapiens, SK-N-SH, 72 h, SKNSH, 72 h (Table 9)): > 50 µM
- IC50 (Homo sapiens, SK-OV-3, 72 h, SKOV3, 72 h (Table 9)): > 50 µM
- IC50 (Homo sapiens, SNB-75, 72 h, SNB75, 72 h (Table 9)): 4.52 µM
- IC50 (Homo sapiens, SU-DHL10, 72 h, SU-DHL-10, 72 h (Table 9)): > 50 µM
- IC50 (Homo sapiens, SU-DHL-6, 72 h, SU-DHL-6, 72 h (Table 9)): 3.92 µM
- IC50 (Homo sapiens, SW-620, 72 h, SW620, 72 h (Table 9)): > 50 µM
- IC50 (Homo sapiens, TE-671, 72 h, TE671, 72 h (Table 9)): > 50 µM
- IC50 (Homo sapiens, THP-1, 72 h, THP-1, 72 h (Table 9)): 2.49 µM
- IC50 (Homo sapiens, U2OS, 72 h, 72 h (Table 9)): > 50 µM
- IC50 (Homo sapiens, U-87 MG, 72 h, U87MG, 72 h (Table 9)): 5.23 µM
- IC50 (Homo sapiens, UMUC3, 72 h, UMUC3, 72 h (Table 9)): > 50 µM
- IC50 (Homo sapiens, UO-31, 72 h, UO31, 72 h (Table 9)): > 50 µM
- IC50 (Homo sapiens, WSU-NHL, 72 h, 72 h (Table 9)): 4.26 µM
- IC50 (NCI-H358M, 72 h, NCIH358M, 72 h (Table 9)): > 50 µM
- IC50 (PBMC, 72 h, 72 h (Table 9)): > 50 µM
- IC50 (RD-ES, 72 h, RDES, 72 h (Table 9)): 3.65 µM
SMILES: Cc1cn([C@H]2C[C@H](O)[C@@](C#N)(CO)O2)c(=O)[nH]c1=O [compound 31]
